Experimental data from publication PMC11864979, “First-in-class ultralong-target-residence-time p38α inhibitors as a mitosis-targeted therapy for colorectal cancer” (Nature Cancer, 2025).
“And” between values parts separate entries of the source, which are not always exact repeats. Equal entries are not always repeated. Where two headings read alike, the source gives them in different places.

Key:
[1] = biological target: p38α (Homo sapiens, UniProt Q16539); experiment: target residence time (TRT) fluorescence polarization jump-dilution assay; assay type: binding
Chain of p38α (Q16539 whole entry): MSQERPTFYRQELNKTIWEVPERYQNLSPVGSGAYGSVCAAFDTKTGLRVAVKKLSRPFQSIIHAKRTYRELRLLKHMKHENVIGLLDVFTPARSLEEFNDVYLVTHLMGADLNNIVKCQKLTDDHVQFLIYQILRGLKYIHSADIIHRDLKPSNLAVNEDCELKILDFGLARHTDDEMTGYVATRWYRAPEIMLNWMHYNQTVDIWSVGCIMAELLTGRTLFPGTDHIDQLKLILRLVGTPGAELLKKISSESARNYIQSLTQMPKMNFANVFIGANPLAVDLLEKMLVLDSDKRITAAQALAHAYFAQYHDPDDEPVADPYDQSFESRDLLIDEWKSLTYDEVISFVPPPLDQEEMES
Procedure: TRTs were determined using a fluorescence polarization assay kit (Transcreener ADP, BellBrook Labs)[29]. […] The formed complex was ‘jump-diluted’ 1:100 (0.5 µl in 49.5 µl) in a 96-half-area-well plate with ATF2 (82 μM), ATP (40 μM) and ADP as the kinase assay detection reagents. The plate was measured every 3 min for 4 h. Fluorescence polarization was detected using the plate reader VictorNivo (PerkinElmer). The data were analyzed using the integrated rate equation in GraphPad Prism version 7.03 software. The residence time was calculated from the reciprocal value of koff.

[2] = test system: KAP organoids; experiment: cell viability in KAP organoids (CellTiter-Glo); assay type: cell-based, mouse; details: for viability at 1 µM: Mus musculus
Method in brief: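 Dissociate organoids (TrypLE, DNaseI, Y-27632, 37 °C); seed 1,000–2,000 single cells per well in medium containing 10% GFR Matrigel or Cultrex BME; after 24 h add inhibitor or DMSO; measure viability with CellTiter-Glo and normalize to vehicle.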

[3] = test system: PDO8; experiment: cell viability in patient-derived CRC organoids PDO8; assay type: cell-based, human
Procedure: (§1) For in vitro treatment studies, organoids were mechanically dissociated and digested using TrypLE supplemented with 100 µg ml^−1 DNaseI and 10.5 µM Y-27632 dihydrochloride (Invitrogen) at 37 °C. A total of 1,000–2,000 single cells were plated per well in white 96-well plates (Greiner) in culture medium containing 10% GFR Matrigel or Cultrex BME. The treatment with doxycycline (5 µg ml^−1), pharmacological inhibitors or corresponding volumes of DMSO was started 24 h after plating. Doxycycline was obtained from Sigma-Aldrich. […] Cell viability was measured by means of CellTiter-Glo 3D or CellTiter-Glo 2.0 reagent (Promega) according to the manufacturers’ instructions and the Infinite M Plex reader (Tecan, i-control version 3.9.1 software). Results were normalized to vehicle (DMSO) or to shNC. For cell-doubling assays, the cell number was quantified at the corresponding time points using Guava EasyCyte flow cytometer (Luminex, CytoSoft v5.2 software).

[4] = test system: PDO9; experiment: cell viability in patient-derived CRC organoids PDO9; assay type: cell-based, human
Procedure: as §1

[5] = test system: PDO10; experiment: cell viability in patient-derived CRC organoids PDO10; assay type: cell-based, human
Procedure: as §1

[6] = test system: PDO11; experiment: cell viability in patient-derived CRC organoids PDO11; assay type: cell-based, human
Procedure: as §1

[7] = test system: PDO12; experiment: cell viability in patient-derived CRC organoids PDO12; assay type: cell-based, human; details: PDO12, 0.5 µM, 4 d
Procedure: as §1

[8] = test system: PDO14; experiment: cell viability in patient-derived CRC organoids PDO14; assay type: cell-based, human
Procedure: as §1

[9] = test system: COLO 205; experiment: cell viability in human CRC cell line COLO 205; assay type: cell-based
Procedure: To generate KAP^2D cells, KAP organoids were isolated from Matrigel, fragmented by mechanical dissociation and plated without any extracellular matrix on common cell culture dishes. Phoenix-Eco packaging cells (CRL-3214), HCT-15 (CCL-225), HCT 116 (CCL-247), COLO 205 (CCL-222), LS 174T (CL-188), RKO (CRL-2577) and HT-29 (HTB-38) were obtained from the American Type Culture Collection. The cells were cultured at 37 °C and 7% CO2 with RPMI (KAP^2D cells) or DMEM (other cell lines), supplemented with 10% FBS and penicillin–streptomycin. KAP^2D cells were authenticated using PCR (Kras locus and Trp53 locus). Phoenix-Eco packaging cells and HCT-15, HCT 116, COLO 205, LS 174T, RKO and HT-29 cells were authenticated by the provider using short tandem repeat profiling. No commonly misidentified cell lines were used. Mycoplasma contamination was excluded by a PCR-based analysis.
as §1

[10] = test system: LS 174T; experiment: cell viability in human CRC cell line LS 174T; assay type: cell-based
Procedure: The cells were cultured at 37 °C and 7% CO2 with RPMI (KAP^2D cells) or DMEM (other cell lines), supplemented with 10% FBS and penicillin–streptomycin. […] No commonly misidentified cell lines were used. Mycoplasma contamination was excluded by a PCR-based analysis.

[11] = test system: KAP^2D cells; experiment: EdU incorporation in KAP^2D cells; assay type: cell-based, mouse; details: replicates, experiment and repetition
Procedure: Immunofluorescence staining on cells and organoids was performed on glass coverslips or tissue culture chambers (Sarstedt). Organoids were plated in medium containing 10% Matrigel or Cultrex BME. The cultures were fixed with 4% paraformaldehyde and stained with specific antibodies and DAPI (Vector Labs). All used antibodies and dilutions are listed in the Nature Portfolio Reporting Summary. For analyzing DNA synthesis, the Molecular Probes Click-iT EdU Alexa Fluor 555 kit was used 24 h after EdU incorporation with DAPI counterstaining. SA-β-Gal staining of cells was performed in cell culture dishes (cells) or tissue culture chambers (organoids) after fixation with 0.5% glutaraldehyde as described above. Human cultures were incubated with X-Gal solution at pH 6.0 for ~4 h.

[12] = test system: subcutaneous KAP CRCs; experiment: treatment of subcutaneous KAP tumors in wild-type mice; assay type: in vivo, mouse; details: for Tumor volume: single tumors, Fig. 5i
Procedure: Subcutaneous injection, splenic seeding or cecum injection of organoids was performed in 8–10-week-old C57BL/6 N/Crl, Rag2^−/− (B6.Cg-Rag2^tm1.1Cgn/J), or CB17 Scid beige (CB17.Cg-Prkdc^scidLyst^bg-J/Crl) mice, obtained from Charles River. The organoids were dissociated into single cells, washed with PBS and injected in a 1:1 mixture of PBS and Matrigel. For murine organoids, 1 × 10^5 cells were injected into the left and right flanks or the spleen capsule and 2 × 10^6 cells were injected into the cecum wall. For human organoids, 4 × 10^5 cells were injected into the flanks of CB17 Scid beige mice. For splenic seeding and cecum injection, mice were anaesthetized using ketamine (100 mg kg^−1, intraperitoneally) and xylazin (10 mg/kg, intraperitoneally) in NaCl and a small laparotomy below the thorax was performed.
No mice were excluded during treatment studies.

## CNC(=O)c1ccc2c(c1)C(=O)c1ccc(Nc3ccc(F)c(NC(=O)C4CC4)c3)cc1CC2 [Compound 2015]
[1]; Fig. 2e, replicates
  TRT: 4961.7 s and 5666.0 s and 5182.4 s
[1]; reciprocal of koff
  TRT: 5,270 s
[2]; Fig. 2b, compound screen, replicates
  Cell viability (%): 20.98% and 10.41% and 17.65%
[2]; Fig. 2f, 0,5 µM, replicates, 5 µM
  Cell viability (%): 20.49% and 19.41%
[2]; Fig. 2f, 0,25 µM, replicates, 25 µM
  Cell viability (%): 76.91% and 71.00%
[2]; Fig. 2f, 1 µM, replicates
  Cell viability (%): 22.79% and 21.48%
[2]; Fig. 2f, 1 µM, replicates, read-out: Cell viability (%)
  viability at 1 µM: 22.2%
[2]; drug screen in KAP organoids, 1 µM concentration, n = 3, mean, read-out: Cell viability (% of DMSO)
  viability at 1 µM: 16.4%
[2]; viability assay
  induction of cell death in KAP organoids (in words): increased cell death induction
[3]; Homo sapiens, 96 h, PDO8, 1 µM, 4 days
  viability at 1 µM: 47.8%
[3]; PDO8, 0.5 µM, 4 d, 0.5 µM
  Cell viability (%): 62.35% and 47.16% and 31.30%
[3]; PDO8, 1 µM, 4 days, 1 µM
  Cell viability (%): 40.47% and 33.30%
[4]; Homo sapiens, 96 h, PDO9, 0.5 µM, 4 d, read-out: Cell viability (%)
  viability at 0.5 µM: 20.8%
[4]; Homo sapiens, 96 h, PDO9, 1 µM, 4 days
  viability at 1 µM: 9.78%
[4]; PDO9, 0.5 µM, 4 d, 0.5 µM
  Cell viability (%): 30.12% and 37.18%
[4]; PDO9, 1 µM, 4 days, 1 µM
  Cell viability (%): 8.84% and 14.14%
[5]; Homo sapiens, 96 h, PDO10, 1 µM, 4 days, read-out: Cell viability (%)
  viability at 1 µM: 32.9%
[5]; PDO10, 0.5 µM, 4 d, 0.5 µM
  Cell viability (%): 34.24% and 30.71% and 56.53%
[5]; PDO10, 1 µM, 4 days, 1 µM
  Cell viability (%): 48.68% and 34.77%
[6]; Homo sapiens, 96 h, PDO11, 0.5 µM, 4 d, read-out: Cell viability (%)
  viability at 0.5 µM: 105%
[6]; Homo sapiens, 96 h, PDO11, 1 µM, 4 days
  viability at 1 µM: 10.3%
[6]; PDO11, 0.5 µM, 4 d, 0.5 µM
  Cell viability (%): 87.92% and 104.04%
[6]; PDO11, 1 µM, 4 days, 1 µM
  Cell viability (%): 16.83% and 13.26%
[7]; Homo sapiens, 96 h, read-out: Cell viability (%)
  viability at 0.5 µM: 40%
[7]; 0.5 µM
  Cell viability (%): 54.51% and 54.94%
[8]; Homo sapiens, 96 h, PDO14, 1 µM, 4 days, read-out: Cell viability (%)
  viability at 1 µM: 38%
[8]; PDO14, 0.5 µM, 4 d, 0.5 µM
  Cell viability (%): 66.36% and 80.25% and 88.11%
[8]; PDO14, 1 µM, 4 days, 1 µM
  Cell viability (%): 35.04% and 42.53%
[9]; 0.0137 µM, 4 d
  COLO 205 Cell viability (%): 86.20% and 87.62% and 93.54% and 93.70% and 89.28%
[9]; 0.0412 µM, 4 d
  COLO 205 Cell viability (%): 89.23% and 86.13% and 86.46% and 84.55% and 84.12%
[9]; 0.1235 µM, 4 d
  COLO 205 Cell viability (%): 81.05% and 83.81% and 80.44% and 77.94% and 85.49% and 51.55%
[9]; 1.1111 µM, 4 d
  COLO 205 Cell viability (%): 10.16% and 10.58% and 11.54% and 5.54% and 4.72% and 3.60%
[9]; 3.3333 µM, 4 d
  COLO 205 Cell viability (%): 11.93% and 11.65% and 12.34% and 6.53% and 6.09% and 5.93%
[9]; 10.0000 µM, 4 d
  COLO 205 Cell viability (%): 14.19% and 14.06% and 18.78% and 17.19% and 10.60%
[9]; Homo sapiens, 96 h, COLO 205, 4 d of treatment
  IC50: 151 nM
[9]; Homo sapiens, COLO 205, 96 h, 0.0137 µM, 4 d
  viability at 0.0137 µM: 88.4%
[9]; Homo sapiens, COLO 205, 96 h, 0.0412 µM, 4 d
  viability at 0.0412 µM: 88.8%
[9]; Homo sapiens, COLO 205, 96 h, 10.0000 µM, 4 d, read-out: COLO 205 Cell viability (%)
  viability at 10 µM: 13.9%
[10]; 0.0137 µM, 4 d
  LS 174T Cell viability (%): 96.94% and 94.17% and 83.74% and 81.63% and 85.36%
[10]; 0.0412 µM, 4 d
  LS 174T Cell viability (%): 73.38% and 70.71% and 85.74% and 87.33% and 89.84%
[10]; 0.1235 µM, 4 d
  LS 174T Cell viability (%): 69.97% and 51.36% and 67.79% and 77.35% and 76.20% and 73.53%
[10]; 0.3704 µM, 4 d
  LS 174T Cell viability (%): 24.32% and 25.80% and 26.81% and 26.78% and 26.48%
[10]; 1.1111 µM, 4 d
  LS 174T Cell viability (%): 31.73% and 32.17% and 36.58% and 37.87% and 35.55%
[10]; 3.3333 µM, 4 d
  LS 174T Cell viability (%): 32.71% and 33.28% and 34.27% and 33.01% and 33.12%
[10]; 10.0000 µM, 4 d
  LS 174T Cell viability (%): 28.71% and 24.62% and 25.79% and 25.85%
[10]; Homo sapiens, LS174T, 96 h, 0.0137 µM, 4 d, read-out: LS 174T Cell viability (%)
  viability at 0.0137 µM: 92.3%
[10]; Homo sapiens, LS174T, 96 h, 0.0412 µM, 4 d, read-out: LS 174T Cell viability (%)
  viability at 0.0412 µM: 70.7%
[10]; Homo sapiens, LS174T, 96 h, 0.3704 µM, 4 d, read-out: LS 174T Cell viability (%)
  viability at 0.3704 µM: 25%
[10]; Homo sapiens, LS174T, 96 h, 1.1111 µM, 4 d, read-out: LS 174T Cell viability (%)
  viability at 1.1111 µM: 31.5%
[10]; Homo sapiens, LS174T, 96 h, 3.3333 µM, 4 d, read-out: LS 174T Cell viability (%)
  viability at 3.3333 µM: 33.1%
[10]; Homo sapiens, LS174T, 96 h, 10.0000 µM, 4 d, read-out: LS 174T Cell viability (%)
  viability at 10 µM: 25.1%
[10]; Homo sapiens, LS174T, 96 h, LS 174T, 4 d of treatment
  IC50: 132 nM
[11]; Fig. 4j
  EdU+ cells: 50.19% and 55.77% and 45.40% and 44.63% and 45.42% and 38.28% and 36.62% and 49.78%
[11]; Fig. 5b
  EdU+ cells: 7.76% and 6.30% and 5.41% and 9.24% and 8.18% and 6.48% and 4.44% and 6.67%
[12]; 20 mg kg^−1 daily, oral gavage
  subcutaneous KAP tumor development (in words): pronounced remission of CRC
[12]; 2 d of treatment
  Tumor volume: 87.5 mm³ and 75.0 mm³ and 126.0 mm³ and 144.0 mm³
[12]; 4 d of treatment
  Tumor volume: 48.0 mm³ and 56.0 mm³ and 40.0 mm³
